Experimental data from patent US6794402B2, “Bicyclic cyclohexylamines and their use as NMDA receptor antagonists” (Warner-Lambert Company, priority 2000, dated 2004).
Structures can show the parent of a compound that is named as a salt.

SMILES | melting point
CCN([C@H]1CC[C@H](c2ccc3[nH]c(=O)oc3c2)CC1)[C@@H](C)CCc1ccccc1 (as salt: HCl) [Example 28, 6-(trans-4-{Ethyl-[(S)-1-methyl-3-phenylpropyl]amino}cyclohexyl)-3H-benzoxazol-2-one] | 221 to 246 °C
O=c1[nH]c2ccc([C@H]3CC[C@H](N(CCO)CCCc4ccc(F)cc4)CC3)cc2o1 (as salt: HCl) [Example 29, 6-{trans-4-[[3-(4-Fluorophenyl)propyl]-(2-hydroxyethyl)amino]cyclohexyl}-3H-benzoxazol-2-one] | 259 to 262 °C
O=c1[nH]c2ccc([C@H]3CC[C@H](N(CCCc4ccc(F)cc4)CC4CC4)CC3)cc2o1 (as salt: HCl) [Example 30, 6-(trans-4-{Cyclopropylmethyl-[3-(4-fluorophenyl)propyl]amino}cyclohexyl)-3H-benzoxazol-2-one] | 221 to 225 °C
O=c1[nH]c2ccc([C@H]3CC[C@H](N(CCCc4ccc(F)cc4)Cc4ccoc4)CC3)cc2o1 (as salt: HCl) [Example 31, 6-(trans-4-{[3-(4-Fluorophenyl)propyl]furan-3-ylmethylamino}cyclohexyl)-3H-benzoxazol-2-one] | 225 to 227 °C
C=CCN(CCCc1ccc(F)cc1)[C@H]1CC[C@H](c2ccc3[nH]c(=O)oc3c2)CC1 (as salt: HCl) [Example 32, 6-(trans-4-{Allyl-[3-(4-fluorophenyl)propyl]amino}cyclohexyl)-3H-benzoxazol-2-one] | 224 to 230 °C
CC(C)CN(CCCc1ccc(F)cc1)[C@H]1CC[C@H](c2ccc3[nH]c(=O)oc3c2)CC1 (as salt: HCl) [Example 33, 6-(trans-4-{[3-(4-Fluorophenyl)propyl]isobutylamino}cyclohexyl)-3H-benzoxazol-2-one] | 199 to 201 °C
NC(=O)CN(CCCc1ccc(F)cc1)[C@H]1CC[C@H](c2ccc3[nH]c(=O)oc3c2)CC1 (as salt: HCl) [Example 34, 2-{[3-(4-Fluorophenyl)propyl]-[4-(2-oxo-2,3-dihydro-benzoxazol-6-yl)-cyclohexyl]amino}acetamide] | 266 to 270 °C
NCCN(CCCc1ccc(F)cc1)[C@H]1CC[C@H](c2ccc3[nH]c(=O)oc3c2)CC1 (as salt: HCl) [Example 35, 6-(trans-4-{(2-Aminoethyl)-[3-(4-fluorophenyl)propyl]amino}cyclohexyl)-3H-benzoxazol-2-one] | 161 to 169 °C
CN(CCCc1ccc(F)c(F)c1)[C@H]1CC[C@H](c2ccc3[nH]c(=O)oc3c2)CC1 (as salt: HCl) [Example 40b, 6-(trans-4-{[3-(3,4-Difluorophenyl)propyl]methylamino}cyclohexyl)-3H-benzoxazol-2-one] | 224 to 227 °C
CN(CCCc1ccc(Cl)cc1F)[C@H]1CC[C@H](c2ccc3[nH]c(=O)oc3c2)CC1 (as salt: HCl) [Example 45b, 6-(trans-4-{[3-(4-Chloro-2-fluorophenyl)propyl]methylamino}cyclohexyl)-3H-benzoxazol-2-one] | 274 to 275 °C
CN(CCCc1ccccc1F)[C@H]1CC[C@H](c2ccc3[nH]c(=O)oc3c2)CC1 (as salt: HCl) [Example 46b, 6-(trans-4-{[3-(2-Fluorophenyl)propyl]methylamino}cyclohexyl)-3H-benzoxazol-2-one] | 242 to 246 °C
CN(CCCc1cccc(F)c1)[C@H]1CC[C@H](c2ccc3[nH]c(=O)oc3c2)CC1 (as salt: HCl) [Example 47b, 6-(trans-4-{[3-(3-Fluorophenyl)propyl]methylamino}cyclohexyl)-3H-benzoxazol-2-one] | 210 to 238 °C
Cc1c(F)cccc1CCCN(C)[C@H]1CC[C@H](c2ccc3[nH]c(=O)oc3c2)CC1 (as salt: HCl) [Example 48b, 6-(trans-4-{[3-(3-Fluoro-2-methylphenyl)propyl]methylamino}cyclohexyl)-3H-benzoxazol-2-one] | 264 to 269 °C
CN(CCCC1CCCCC1)[C@H]1CC[C@H](c2ccc3[nH]c(=O)oc3c2)CC1 (as salt: HCl) [Example 49b, 6-{trans-4-[(3-Cyclohexylpropyl)methylamino]cyclohexyl}-3H-benzoxazol-2-one] | 247 to 251 °C
CN(CCCc1ccsc1)[C@H]1CC[C@H](c2ccc3[nH]c(=O)oc3c2)CC1 (as salt: HCl) [Example 52b, 6-[trans-4-{[3-(3-Thiophen-3-yl)propyl]methylamino}cyclohexyl)-3H-benzoxazol-2-one] | 246 to 248 °C
CC(C)c1ccc(CCCN(C)[C@H]2CC[C@H](c3ccc4[nH]c(=O)oc4c3)CC2)cc1 (as salt: HCl) [Example 53, 6-(trans-4-{[3-(4-Isopropylphenyl)propyl]methylamino}cyclohexyl)-3H-benzoxazol-2-one] | 179 to 181 °C
CN(CCCc1ccc(Cl)cc1Cl)[C@H]1CC[C@H](c2ccc3[nH]c(=O)oc3c2)CC1 (as salt: HCl) [Example 54, 6-(trans-4-{[3-(2,4-Dichlorophenyl)propyl]methylamino}cyclohexyl)-3H-benzoxazol-2-one] | 273 to 279 °C
CN(CCCc1ccc(F)c(F)c1F)[C@H]1CC[C@H](c2ccc3[nH]c(=O)oc3c2)CC1 (as salt: HCl) [Example 55, 6-(trans-4-{[3-(2,3,4-Trifluorophenyl)propyl]methylamino}cyclohexyl)-3H-benzoxazol-2-one] | 269 to 274 °C
CC(C)Cc1ccc(CCCN(C)[C@H]2CC[C@H](c3ccc4[nH]c(=O)oc4c3)CC2)cc1 (as salt: HCl) [Example 56, 6-(trans-4-{[3-(4-Isobutylphenyl)propyl]methylamino}cyclohexyl)-3H-benzoxazol-2-one] | 162 to 165 °C
CN(CCCc1c(F)cc(F)cc1F)[C@H]1CC[C@H](c2ccc3[nH]c(=O)oc3c2)CC1 (as salt: HCl) [Example 57, 6-(trans-4-{[3-(2,4,6-Trifluorophenyl)propyl]methylamino}cyclohexyl)-3H-benzoxazol-2-one] | 235 to 238 °C
CN(CCCc1nccs1)[C@H]1CC[C@H](c2ccc3[nH]c(=O)oc3c2)CC1 (as salt: HCl) [Example 59, 6-{trans-4-[Methyl(3-thiazol-2-ylpropyl)amino]cyclohexyl}-3H-benzoxazol-2-one] | 237 to 239 °C
CN(CCN(C)[C@H]1CC[C@H](c2ccc3[nH]c(=O)oc3c2)CC1)c1ccccc1 (as salt: HCl) [Example 60, 6-(trans-4-{Methyl-[2-(Methylphenylamino)ethyl]amino}cyclohexyl)-3H-benzoxazol-2-one] | 240 to 243 °C
O=c1[nH]c2ccc([C@H]3CC[C@H](NCCCc4ccc(F)cc4)CC3)cc2[nH]1 (as salt: HCl) [Example 62, 5-{trans-4-[3-(4-Fluorophenyl)propylamino]cyclohexyl}-1,3-dihydrobenzoimidazol-2-one] | 336 to 339 °C
Cc1cc2[nH]c(=O)oc2cc1[C@H]1CC[C@H](N(C)CCCc2ccc(F)cc2)CC1 (as salt: salt) [Example 64, 6-(4-{[3-(4-Fluorophenyl)propyl]methyl-amino}cyclohexyl)-5-methyl-3H-benzoxazol-2-one] | 264 to 267 °C
COc1cc2[nH]c(=O)oc2cc1[C@H]1CC[C@H](N(C)CCCc2ccc(F)cc2)CC1 (as salt: salt) [Example 65, 6-(trans-4-{[3-(4-Fluorophenyl)propyl]methylamino}cyclohexyl)-5-methoxy-3H-benzoxazol-2-one] | 239 to 242 °C
C[C@H](N[C@H]1CC[C@H](c2ccc3[nH]c(=O)oc3c2)CC1)[C@H](O)c1ccccc1 (stereo in doubt) (as salt: HCl) [Example 12, 6-{trans-4-[(1S,2R)-2-Hydroxy-1-methyl-2-phenylethylamino]cyclohexyl}-3H-benzoxazol-2-one] | 251 to 256 °C
